According to patent US20250368687A1, “SHORT SYNTHETIC PEPTIDES AND USES THEREOF IN THE TREATMENT OF ENTEROVIRUS INFECTION” (CITY UNIVERSITY OF HONG KONG, priority 2024, published 2025):

Experiments:
EV-A71 = test: Viral RNA quantification by RT-qPCR; assay type: cell-based; settings: for effect on viral RNA level: 8 μM; for decrease of extracellular viral RNA level: 25 μM, EV-A71 MOI 1 for 12 hours; for decrease of extracellular viral RNA level / decrease of viral RNA / viral RNA level (in words): RD cells; for decrease of viral RNA: 50 μM; for decrease of viral RNA / viral RNA level (in words): intracellular viral RNA; for viral RNA level (in words): indicated concentrations
Protocol: FIGS. 7A-7D Ser78 phosphorylation-deficient Hsp27 inhibits EV-A71 replication and propagation (FIG. 7A) HEK 293T cells were transfected with 500 ng Hsp27 (WT, 3A, S15A, S78A, S82A) plasmids for 48 hours, and then infected with EV-A71 at an MOI of 10 for 9h. Intracellular viral RNA were extracted and quantified by qPCR. (FIG. 7B) HEK 293T cells were transfected with 500 ng Hsp27 (WT, 3D, S15D, S78D, S82D) plasmids for 48 hours, and then infected with EV-A71 at an MOI of 10 for 9h. Intracellular viral RNA were extracted and quantified by qPCR. (FIG. 7C) HEK 293T cells were transfected with 500 ng Hsp27 (WT, S78A, S78D) plasmids for 48 hours, and treated with 8 μM SB203580 2 hours before infection with EV-A71. (FIG. 7D) HEK 293T cells were transfected with 500 ng Hsp27 (WT, 3A, S15A, S78A, S82A) plasmids for 48 hours, and then infected with EV-A71 at an MOI of 10 for 12h. Viral titration was calculated by TCID50. Statistical analyses were carried out using Student's t-test. *: p<0.05, **: p<0.01, ***: p<0.001. Data are expressed as mean ±SD.
(§1) FIGS. 10A-10K. Peptide S78 inhibited EV-A71 replication and propagation. (FIG. 10A) RD cells were pre-treated with peptides S78 or for 2 hours and infected with EV-A71 at the MOI of 10 for 6 hours. Cell lysates were collected for western blot assay. Hsp27 phosphorylation on Ser 15, 78, 82 were detected by specific antibodies. β-Actin were detected as internal control. (FIG. 10B) Densitometric analysis of FIG. 9A. (FIG. 10C) HEK 293T cells were pre-treated with peptides S78 or S78A at the concentration of 25 μM for 2 hours and then co-transfected with Hsp27-WT plasmid (800 ng), pIRES reporter plasmid (200 ng) and 2A^pro-expressing plasmid or 2AC110A-expressing plasmid (200 ng) for 24 h, then the luciferase activity was measured. (FIG. 10D-10E) RD cells were treated with peptides S78 or S78A and then infected with EV-A71. EV-A71 VP1 were detected. (FIG. 10F) RD cells were treated with peptides and then infected with EV-A71 at the MOI of 1 for 12 hours. The EV-A71-induced CPE was captured. (FIG. 10G-10H) Intracellular viral RNA was extracted and quantified by qPCR. (FIG. 10I) Densitometric analysis FIG. 9D-E. (FIG. 10J) RD cells were treated with peptides S78 or and then infected with EV-A71 at the MOI of 1 for 12 hours. Extracellular viral RNA was extracted and quantified by qPCR. (FIG. 10K) Viral titration was calculated by TCID50. The Statistical analyses were carried out using Student's t-test. *: p<0.05, **: p<0.01, ***: p<0.001. Data are expressed as mean ±SD.
FIGS. 11A-11G Inhibition of EV-A71 Protein Translation and Viral Reproduction by peptide S82A. (FIG. 11A) HEK 293T cells were pre-treated with peptides NC, S78, S78A, S82A, or S78-3A at the concentration of 25 μM for 2 hours and then co-transfected with Hsp27-WT plasmid (800 ng), pIRES reporter plasmid (200 ng) and 2A^pro-expressing plasmid for 24 h, then the luciferase activity was measured. (FIG. 11B) RD cells were pre-treated with peptides NC at indicated concentrations for 2 hours and infected with EV-A71 at the MOI of 1 for 9 hours. Intracellular viral RNA was extracted and quantified by qPCR. (FIG. 11C-11E) RD cells were treated with peptides NC, S82A, or S78-3A at indicated concentrations for 2 hours and then infected with EV-A71 at the MOI of 1 for 9 hours. Cell lysates were collected for western blot assay. EV-A71 VP1 were detected. β-Actin was detected as an internal control. (FIG. 11F) Densitometric analysis of the EV-A71 VP1 level in FIG. S7C-E was quantified and normalized with β-Actin using ImageJ. (FIG. 11G) RD cells were treated with peptides S78, S78A, S82A, or S78-3A at the concentration of 25 μM for 2 hours and then infected with EV-A71 at the MOI of 0.1 for 24 hours. Viral titration was calculated. The Statistical analyses were carried out using Student's t-test. *: p<0.05, **: p<0.01, ***: p<0.001. Data are expressed as mean ±SD. […]

EV-A71 IRES activity = test: Dual-luciferase IRES reporter assay in HEK 293T cells pre-treated with peptides; assay type: cell-based; settings: 25 μM for 2 hours; for decrease of 2Apro-induced viral IRES activity: 24 h
Protocol: as §1
FIGS. 11A-11G Inhibition of EV-A71 Protein Translation and Viral Reproduction by peptide S82A. (FIG. 11A) HEK 293T cells were pre-treated with peptides NC, S78, S78A, S82A, or S78-3A at the concentration of 25 μM for 2 hours and then co-transfected with Hsp27-WT plasmid (800 ng), pIRES reporter plasmid (200 ng) and 2A^pro-expressing plasmid for 24 h, then the luciferase activity was measured. (FIG. 11B) RD cells were pre-treated with peptides NC at indicated concentrations for 2 hours and infected with EV-A71 at the MOI of 1 for 9 hours. Intracellular viral RNA was extracted and quantified by qPCR. […] EV-A71 VP1 were detected. β-Actin was detected as an internal control. (FIG. 11F) Densitometric analysis of the EV-A71 VP1 level in FIG. S7C-E was quantified and normalized with β-Actin using ImageJ. […] Viral titration was calculated. […] Data are expressed as mean ±SD.
HEK 293T cells were seeded in 24-wells, and then co-transfected with plasmids to simultaneously express 2A^pro (200 ng), pIRES reporter (200 ng), and the wild-type Hsp27 or its mutants (800 ng). […] The Renilla luciferase (RLuc) and Firefly luciferase (FLuc) activity were determined by using a dual-luciferase reporter assay (Promega) according to the manufacturer's instructions in a Lumat LB9507 bioluminometer.

Compound	decrease of viral RNA level (EV-A71; 8 μM 2 hours before infection, Hsp27 over-expressing HEK 293T cells) [%]	effect on viral RNA level (EV-A71; Hsp27 S78A-expressing HEK 293T cells)	effect on viral RNA level (EV-A71; Hsp27 S78D-expressing HEK 293T cells)	decrease of extracellular viral RNA level (EV-A71) [folds]	decrease of viral RNA (EV-A71) [%]	decrease of 2Apro-induced viral IRES activity (EV-A71 IRES activity)	viral RNA level (in words) (EV-A71)	effect on viral IRES activity (in words) (EV-A71 IRES activity; 24 h (FIG. 11A))
C[S+]([O-])c1ccc(-c2nc(-c3ccncc3)c(-c3ccc(F)cc3)[nH]2)cc1 (stereo not drawn) [SB203580, reference compound]	50	no obvious effects	no obvious effects					
Ac-RKKRRQRRRAYSRALARQLSS-NH2 [S78A]				30	46	about 10%		
Ac-RKKRRQRRRAYSRALSRQLSS-NH2 [S78]				800	82	34%	dramatically reduced	
Ac-RKKRRQRRRYSREANQPKPSPKRESGEE-NH2 [NC, reference compound]							no effect	did not affect
